Format in all cases: functional
In experiment [1] the test system is Staphylococcus aureus. Put plainly: Antibacterial activity against Staphylococcus aureus RN4220 after 20 hrs. To be noted: RN4220, 20 h.
Experiment [2] relates to Staphylococcus aureus. As to the kind of experiment: Antibacterial activity against Staphylococcus aureus TS2921 harboring ddlA Asp102Asn mutation in fifth-instar silkworm larva infection model assessed as compound concentration per gram of larva […] after 48 hrs post dose at 27 degC.
Experiment [3] concerns Staphylococcus aureus. Put plainly: Antibacterial activity against Staphylococcus aureus TS2921 harboring ddlA Asp102Asn mutation and coexpressing pSddlA which complements temperature sensitivity after 20 hrs. The note with it: TS2921, 20 h.
Experiment [4] has as its system Staphylococcus aureus. As to the kind of experiment: Antibacterial activity against Staphylococcus aureus TS2921 harboring ddlA Asp102Asn mutation after 20 hrs. The note with it: TS2921, 20 h.
Experiment [5] deals with Staphylococcus aureus. Put plainly: Antibacterial activity against Staphylococcus aureus TS5337 harboring ddlA Pro178Ser mutation after 20 hrs. To be noted: TS5337, 20 h.
The subject of experiment [6] is Staphylococcus aureus. As to the kind of experiment: Antibacterial activity against Staphylococcus aureus TS2921 harboring ddlA Asp102Asn mutation in presence of 100 mM D-Ala-D-Ala, which complements temperature sensitivity after 20 hrs. The note with it: TS2921, 20 h.
Experiment [7] concerns Staphylococcus aureus. As to the kind of experiment: Antibacterial activity against Staphylococcus aureus RN4220 in fifth-instar silkworm larva infection model assessed as compound concentration per gram of larva […] after 48 hrs post dose at 27 degC.
The test system of experiment [8] is Staphylococcus aureus. Put plainly: Antibacterial activity against Staphylococcus aureus TS5337 harboring ddlA Pro178Ser mutation in fifth-instar silkworm larva infection model assessed as compound concentration per gram of larva […] after 48 hrs post dose at 27 degC.
In experiment [9] the test system is Staphylococcus aureus. As to the kind of experiment: Antibacterial activity against Staphylococcus aureus TS10007 harboring ddlA Asp39Asn mutation in fifth-instar silkworm larva infection model assessed as compound concentration per gram of larva […] after 48 hrs post dose at 27 degC.
Experiment [10] has as its system Staphylococcus aureus. Put plainly: Antibacterial activity against Staphylococcus aureus TS10007 harboring ddlA Asp39Asn mutation after 20 hrs. To be noted: TS10007, 20 h.

SMILES strings stand for the structures. Converted amounts (≈) assume the structure as drawn.

Turning to `CN[C@H](CC(C)C)C(=O)N[C@H]1C(=O)N[C@@H](CC(N)=O)C(=O)N[C@H]2C(=O)N[C@H]3C(=O)N[C@H](C(=O)N[C@H](C(=O)O)c4cc(O)cc(O)c4-c4cc3ccc4O)[C@H](O)c3ccc(c(Cl)c3)Oc3cc2cc(c3O[C@@H]2O[C@H](CO)[C@@H](O)[C@H](O)[C@H]2O[C@H]2C[C@](C)(N)[C@H](O)[C@H](C)O2)Oc2ccc(cc2Cl)[C@H]1O` [VANCOMYCIN], the MIC came out at 0.4 µg/mL (≈ 0.276 µM) in experiment [1]; 0.4 µg/mL (≈ 0.276 µM) in experiment [3]; 0.4 µg/mL (≈ 0.276 µM) in [4]; 0.4 µg/mL (≈ 0.276 µM) in experiment [5]; 1.6 µg/mL in [6]; 0.4 µg/mL (≈ 0.276 µM) in experiment [10]. The ED50 in experiment [2] turned out to be 0.43 µg; in [7] it was 0.53 µg; in experiment [8] it was 0.45 µg; in experiment [9] it was 0.25 µg.
Regarding `CCn1cc(C(=O)O)c(=O)c2cc(F)c(N3CCNCC3)cc21` [NORFLOXACIN], the MIC in experiment [1] was determined as 0.63 µg/mL (≈ 1.97 µM); in experiment [3], 0.63 µg/mL (≈ 1.97 µM); in experiment [4] it was 0.63 µg/mL (≈ 1.97 µM); in experiment [5], 0.63 µg/mL (≈ 1.97 µM); in experiment [6] it was 0.63 µg/mL; in experiment [10], 0.63 µg/mL (≈ 1.97 µM).
`CO[C@@]1(NC(=O)CSC(F)F)C(=O)N2C(C(=O)O)=C(CSc3nnnn3CCO)CO[C@@H]21` [FLOMOXEF]: the MIC turned out to be 0.4 µg/mL (≈ 0.806 µM) in [1]; 0.4 µg/mL (≈ 0.806 µM) in experiment [3]; 0.2 µg/mL (≈ 0.403 µM) in experiment [4]; 0.2 µg/mL (≈ 0.403 µM) in [5]; 0.4 µg/mL in [6]; 0.4 µg/mL (≈ 0.806 µM) in experiment [10]. In addition, the ED50 in [2] was found to be 0.031 µg; in experiment [7], 0.054 µg; in experiment [8] it was 0.031 µg; in experiment [9], 0.048 µg.
As for `N[C@@H]1CONC1=O` [CYCLOSERINE], the MIC in experiment [1] was 100 µg/mL (≈ 979 µM); in experiment [3], greater than 100 µg/mL; in [4] it was 12.5 µg/mL (≈ 122 µM); in experiment [5] it was 25 µg/mL (≈ 245 µM); in experiment [6], 50 µg/mL; in experiment [10], 50 µg/mL (≈ 490 µM). The ED50 in [2] was less than 2.2 µg; in experiment [7] it was 40 µg; in [8], 5.4 µg; in [9] it was less than 2.2 µg.
As for `O=C(N[C@H](CO)[C@H](O)c1ccc([N+](=O)[O-])cc1)C(Cl)Cl` [CHLORAMPHENICOL], the MIC in experiment [1] was found to be 6.3 µg/mL (≈ 19.5 µM); in [4], 3.1 µg/mL (≈ 9.59 µM); in experiment [5], 3.1 µg/mL (≈ 9.59 µM); in experiment [6], 3.1 µg/mL; in [10], 3.1 µg/mL (≈ 9.59 µM). For the same compound, the ED50 in [2] was 5.3 µg; in [7] it was 4.9 µg.
`CN(C)[C@@H]1C(O)=C(C(N)=O)C(=O)[C@@]2(O)C(O)=C3C(=O)c4c(O)cccc4[C@@](C)(O)[C@H]3C[C@@H]12` [TETRACYCLINE]: the minimal inhibitory concentration (MIC) in experiment [1] came to 0.063 µg/mL (≈ 0.142 µM); in [3], 0.063 µg/mL (≈ 0.142 µM); in experiment [4], 0.063 µg/mL (≈ 0.142 µM); in [5], 0.063 µg/mL (≈ 0.142 µM); in experiment [6], 0.031 µg/mL; in experiment [10] it was 0.063 µg/mL (≈ 0.142 µM). The ED50 in [2] came to 0.7 µg; in [7], 0.68 µg; in [8], 0.75 µg; in [9], 0.35 µg.
